The Ki is a dissociation constant, usually derived from enzyme kinetics or from competition with a known ligand. Broadly, the inhibition is the share of the control response that was lost under treatment. Read a high inhibition as a response far below the control.

Assay [1] concerns the target T1, Delta-type opioid receptor (Homo sapiens, UniProt P41143). In words: Inhibition of delta opioid receptor.
Assay [2] has as its target Alpha-2A adrenergic receptor (Homo sapiens) (UniProt P08913). In words: Inhibition of alpha2A adrenergic receptor at 10 uM.
The target in assay [3] is 5-hydroxytryptamine receptor 2B (Homo sapiens, UniProt P41595). Briefly: Inhibition of 5-HT2B receptor.
The target in assay [4] is T2, D(4) dopamine receptor (Homo sapiens) (UniProt P21917).
T2 sequence (whole entry): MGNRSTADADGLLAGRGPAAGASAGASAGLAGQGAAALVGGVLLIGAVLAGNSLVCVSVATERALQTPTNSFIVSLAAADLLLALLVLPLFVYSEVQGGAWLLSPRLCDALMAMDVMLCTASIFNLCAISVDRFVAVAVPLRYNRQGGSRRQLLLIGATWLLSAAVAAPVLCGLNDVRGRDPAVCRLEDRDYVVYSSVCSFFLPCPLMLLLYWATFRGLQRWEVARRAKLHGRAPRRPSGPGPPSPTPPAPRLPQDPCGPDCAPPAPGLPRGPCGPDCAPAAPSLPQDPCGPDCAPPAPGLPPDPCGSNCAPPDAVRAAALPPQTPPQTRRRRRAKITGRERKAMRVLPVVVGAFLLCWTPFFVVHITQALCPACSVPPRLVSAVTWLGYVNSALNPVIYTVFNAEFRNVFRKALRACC
Briefly: Inhibition of D4 dopamine receptor at 10 uM.

For assay [5], the target named is T3, Kappa-type opioid receptor (Homo sapiens, UniProt P41145). In words: Inhibition of kappa opioid receptor.
Assay [6] has as its target T3, Kappa-type opioid receptor. In words: Inhibition of kappa opioid receptor at 10 uM.
The target of assay [7] is 5-hydroxytryptamine receptor 3A (Homo sapiens) (UniProt P46098). Briefly: Inhibition of 5-HT3 receptor at 10 uM.
Assay [8] has as its target T1, Delta-type opioid receptor. Briefly: Inhibition of delta opioid receptor at 10 uM.
Assay [9] concerns the target Alpha-1B adrenergic receptor (Homo sapiens, UniProt P35368). In words: Inhibition of Alpha-1B adrenergic receptor.

T3 sequence (P41145 whole entry): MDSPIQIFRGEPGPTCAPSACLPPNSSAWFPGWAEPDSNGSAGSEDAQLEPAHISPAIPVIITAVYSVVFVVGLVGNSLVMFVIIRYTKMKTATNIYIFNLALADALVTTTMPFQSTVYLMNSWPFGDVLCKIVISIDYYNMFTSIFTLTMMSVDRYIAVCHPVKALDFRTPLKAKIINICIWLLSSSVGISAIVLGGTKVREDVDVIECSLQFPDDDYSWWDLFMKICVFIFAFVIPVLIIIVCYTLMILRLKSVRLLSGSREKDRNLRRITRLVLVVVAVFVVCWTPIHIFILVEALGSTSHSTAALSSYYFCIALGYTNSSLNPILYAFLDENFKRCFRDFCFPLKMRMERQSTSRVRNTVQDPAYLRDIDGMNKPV
T1 sequence (P41143 whole entry): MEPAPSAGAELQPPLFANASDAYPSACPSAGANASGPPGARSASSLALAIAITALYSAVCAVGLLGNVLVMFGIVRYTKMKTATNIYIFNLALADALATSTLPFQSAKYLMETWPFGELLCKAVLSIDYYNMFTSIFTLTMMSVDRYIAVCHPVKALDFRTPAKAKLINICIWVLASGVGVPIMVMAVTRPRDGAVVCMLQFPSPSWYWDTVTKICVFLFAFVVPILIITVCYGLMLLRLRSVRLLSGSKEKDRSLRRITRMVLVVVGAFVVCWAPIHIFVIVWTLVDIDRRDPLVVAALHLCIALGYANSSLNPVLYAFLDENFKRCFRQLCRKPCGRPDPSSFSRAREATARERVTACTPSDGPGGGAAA
Chain of 5-hydroxytryptamine receptor 3A (Homo sapiens) (P46098 whole entry): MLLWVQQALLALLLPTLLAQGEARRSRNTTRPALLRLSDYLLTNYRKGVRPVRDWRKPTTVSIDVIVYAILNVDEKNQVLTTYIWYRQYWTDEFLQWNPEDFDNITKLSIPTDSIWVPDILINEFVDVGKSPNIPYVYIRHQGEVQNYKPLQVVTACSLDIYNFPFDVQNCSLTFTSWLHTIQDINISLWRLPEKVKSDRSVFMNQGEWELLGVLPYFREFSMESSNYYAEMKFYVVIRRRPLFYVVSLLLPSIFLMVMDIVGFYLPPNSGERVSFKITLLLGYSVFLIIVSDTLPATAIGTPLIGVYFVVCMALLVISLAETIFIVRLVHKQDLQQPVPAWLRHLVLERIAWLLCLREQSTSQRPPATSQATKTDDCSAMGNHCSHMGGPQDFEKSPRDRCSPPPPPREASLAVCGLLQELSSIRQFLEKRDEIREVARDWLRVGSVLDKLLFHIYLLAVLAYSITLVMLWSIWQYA
Chain of Alpha-2A adrenergic receptor (Homo sapiens) (P08913 whole entry): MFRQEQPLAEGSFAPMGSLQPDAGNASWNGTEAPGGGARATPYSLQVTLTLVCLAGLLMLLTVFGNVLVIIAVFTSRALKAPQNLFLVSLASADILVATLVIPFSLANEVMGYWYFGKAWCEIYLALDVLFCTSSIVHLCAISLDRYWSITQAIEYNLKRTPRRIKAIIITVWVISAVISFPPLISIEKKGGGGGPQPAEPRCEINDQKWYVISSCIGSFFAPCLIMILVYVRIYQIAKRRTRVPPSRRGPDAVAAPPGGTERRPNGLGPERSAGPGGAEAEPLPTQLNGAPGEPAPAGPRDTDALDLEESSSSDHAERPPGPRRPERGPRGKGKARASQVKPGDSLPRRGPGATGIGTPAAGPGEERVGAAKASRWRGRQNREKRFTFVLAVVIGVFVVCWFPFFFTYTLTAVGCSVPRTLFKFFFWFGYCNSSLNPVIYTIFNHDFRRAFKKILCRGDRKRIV
Chain of 5-hydroxytryptamine receptor 2B (P41595 whole entry): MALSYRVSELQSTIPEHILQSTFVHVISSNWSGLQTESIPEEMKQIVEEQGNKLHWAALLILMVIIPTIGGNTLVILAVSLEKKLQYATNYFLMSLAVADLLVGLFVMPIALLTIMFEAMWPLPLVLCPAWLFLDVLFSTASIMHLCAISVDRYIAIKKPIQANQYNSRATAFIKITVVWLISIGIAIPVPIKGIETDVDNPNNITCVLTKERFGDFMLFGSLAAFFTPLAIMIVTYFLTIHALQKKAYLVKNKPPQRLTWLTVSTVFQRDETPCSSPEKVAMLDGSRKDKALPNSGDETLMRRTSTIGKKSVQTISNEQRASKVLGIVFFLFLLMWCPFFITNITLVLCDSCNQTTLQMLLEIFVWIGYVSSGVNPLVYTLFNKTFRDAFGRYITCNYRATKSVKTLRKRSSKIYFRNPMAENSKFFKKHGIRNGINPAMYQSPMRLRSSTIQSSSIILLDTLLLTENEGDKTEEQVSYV
Chain of Alpha-1B adrenergic receptor (P35368 whole entry): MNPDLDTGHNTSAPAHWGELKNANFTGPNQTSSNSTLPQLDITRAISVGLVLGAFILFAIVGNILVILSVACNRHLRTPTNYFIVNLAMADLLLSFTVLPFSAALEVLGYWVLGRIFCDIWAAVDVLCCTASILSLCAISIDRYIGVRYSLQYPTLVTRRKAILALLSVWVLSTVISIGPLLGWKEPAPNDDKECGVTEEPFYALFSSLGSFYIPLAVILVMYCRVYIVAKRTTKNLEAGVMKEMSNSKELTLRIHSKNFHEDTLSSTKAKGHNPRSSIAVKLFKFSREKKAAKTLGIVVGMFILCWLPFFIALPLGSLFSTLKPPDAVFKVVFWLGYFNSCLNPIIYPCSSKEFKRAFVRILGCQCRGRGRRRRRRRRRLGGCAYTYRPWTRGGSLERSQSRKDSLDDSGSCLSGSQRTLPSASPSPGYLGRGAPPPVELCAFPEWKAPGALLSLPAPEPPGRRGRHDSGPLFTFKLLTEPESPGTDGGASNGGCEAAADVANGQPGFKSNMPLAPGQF

On to `CCCCOc1ccc(-c2nn3c(C)cc(C)nc3c2CC(=O)N(CC)CC)cc1`, for which the Ki in assay [1] was over 10 µM; in assay [3] it was 8.36 µM; in assay [5], over 10 µM. Besides, the inhibition in assay [2] and in assay [4] was under 50% in each case.
`C#CCOc1ccc(-c2nn3c(C)cc(C)nc3c2CC(=O)N(CC)CC)cc1`: the inhibition in assay [2], in assay [6], in assay [4], in assay [7] and in assay [8] was under 50% each time.
As for `CCOc1ccc(-c2nn3c(C)cc(C)nc3c2CC(=O)N(CC)CC)cc1`, the inhibition in [6], in assay [4], in assay [7] and in assay [8] was under 50% throughout.
Turning to `CCCOc1ccc(-c2nn3c(C)cc(C)nc3c2CC(=O)N(CC)CC)cc1`, the Ki in [1], in [9] and in assay [5] was over 10 µM throughout. This compound also had an inhibition in [4] of under 50%.

Source of the values: ChEMBL document CHEMBL1255512, “Pyrazolo[1,5-a]pyrimidine acetamides: 4-Phenyl alkyl ether derivatives as potent ligands for the 18 kDa translocator protein (TSPO)” (Bioorg Med Chem Lett, 2010).
